Data on six compounds can be found in article PMC3958260 (2014).

Experiment [1] has as its system aptamer # 13_82 (DNA, aptamer) ATACCAGCTTATTCAATTCAGGGCGGTATGAGGCTCGATCAAGGTCGGAGCGAGAATTTTTTCGCGGAGTCGGCTGGATCAGATAGTAAGTGCAATCT
The experiment can be described thus: bead fluorescence release assay. Conditions: 100 mM Na+, 5 mM K+, 2 mM Mg2+, 1 mM Ca2+; 20 mM Tris-HCl pH 7.6, 21 °C; 1 mM compound; release from capture oligo iODN2Sp; single concentration.

For experiment [2], the system named is aptamer # 11_76 (DNA, aptamer) ATACCAGCTTATTCAATTATGCGGGGATGAGGCTTGATCTGTGGCTCTGATCCATGATCAGTCGTCTTACGTGCGGTCCAGATAGTAAGTGCAATCT
The experiment can be described thus: bead fluorescence release assay. Conditions: 100 mM Na+, 5 mM K+, 2 mM Mg2+, 1 mM Ca2+; 20 mM Tris-HCl pH 7.6, 21 °C; 1 mM compound; release from capture oligo iODN2Sp; single concentration.

Experiment [3] has as its system aptamer # 3_7 (DNA, aptamer) ATACCAGCTTATTCAATTGGTGGTAGGATGGGCTCGATCGAGGTCTTCAGTCGGCTCGGTTTAGTTTATGTTCTCCTGTAGATAGTAAGTGCAATCT
The experiment can be described thus: bead fluorescence release assay. Conditions: 100 mM Na+, 5 mM K+, 2 mM Mg2+, 1 mM Ca2+; 20 mM Tris-HCl pH 7.6, 21 °C; 1 mM compound; release from capture oligo iODN2Sp; single concentration.

Experiment [4] deals with aptamer # 3_7(1-79) (DNA, aptamer) ATACCAGCTTATTCAATTGGTGGTAGGATGGGCTCGATCGAGGTCTTCAGTCGGCTCGGTTTAGTTTATGTTCTCCTGT
The experiment can be described thus: bead fluorescence release assay. Conditions: 100 mM Na+, 5 mM K+, 2 mM Mg2+, 1 mM Ca2+; 20 mM Tris-HCl pH 7.6, 21 °C; 1 mM compound; release from capture oligo iODN2Sp; single concentration.

Experiment [5] has as its system aptamer # 3_19 (DNA, aptamer) ATACCAGCTTATTCAATTAGCCCGGTATTGAGGTCGATCTCTTATCCTATGGCTTGTCCCCCATGGCTCGGTTATATCCAGATAGTAAGTGCAATCT
In words: bead fluorescence release assay. The conditions noted are these: 100 mM Na+, 5 mM K+, 2 mM Mg2+, 1 mM Ca2+, 20 mM Tris-HCl pH 7.6, 21 °C, 1 mM compound, release from capture oligo iODN2Sp; for amount of eluted aptamer DNA: single concentration; for binding: below 1 pmol threshold.

Experiment [6] concerns aptamer # 13_82(19-80) (DNA, aptamer) CAGGGCGGTATGAGGCTCGATCAAGGTCGGAGCGAGAATTTTTTCGCGGAGTCGGCTGGATC
In words: MTP fluorescence release assay. The conditions noted are these: 100 mM Na+, 5 mM K+, 2 mM Mg2+, 1 mM Ca2+; 20 mM Tris-HCl pH 7.6, 21 °C; release from capture oligo iODN2Sp; elution not above background.

Experiment [7] shares this test system. In words: bead fluorescence release assay. Conditions: 100 mM Na+, 5 mM K+, 2 mM Mg2+, 1 mM Ca2+; 20 mM Tris-HCl pH 7.6, 21 °C; 1 mM compound; release from capture oligo iODN2Sp; single concentration.
Experiment [8] has the same test system. The experiment can be described thus: fluorescence (bead or MTP assay) or SPR, capture-oligo release. Conditions: 100 mM Na+, 5 mM K+, 2 mM Mg2+, 1 mM Ca2+; 20 mM Tris-HCl pH 7.6; release from capture oligo iODN2Sp; micromolar range; apparent.
For experiment [9], the system named is # 3_19(1-79) (DNA, aptamer) ATACCAGCTTATTCAATTAGCCCGGTATTGAGGTCGATCTCTTATCCTATGGCTTGTCCCCCATGGCTCGGTTATATCC
In words: MTP fluorescence release assay. The conditions noted are these: 100 mM Na+, 5 mM K+, 2 mM Mg2+, 1 mM Ca2+; 20 mM Tris-HCl pH 7.6, 21 °C; release from capture oligo iODN2Sp; elution not above background.

Experiment [10] concerns aptamer # 3_7(1-79) (DNA, aptamer) ATACCAGCTTATTCAATTGGTGGTAGGATGGGCTCGATCGAGGTCTTCAGTCGGCTCGGTTTAGTTTATGTTCTCCTGT
The experiment can be described thus: fluorescence (bead or MTP assay) or SPR, capture-oligo release. The conditions noted are these: 100 mM Na+, 5 mM K+, 2 mM Mg2+, 1 mM Ca2+; 20 mM Tris-HCl pH 7.6; release from capture oligo iODN2Sp; micromolar range; apparent.

The subject of experiment [11] is aptamer # 11_76 (DNA, aptamer) ATACCAGCTTATTCAATTATGCGGGGATGAGGCTTGATCTGTGGCTCTGATCCATGATCAGTCGTCTTACGTGCGGTCCAGATAGTAAGTGCAATCT
Described as above. The conditions noted are these: 100 mM Na+, 5 mM K+, 2 mM Mg2+, 1 mM Ca2+; 20 mM Tris-HCl pH 7.6; release from capture oligo iODN2Sp; micromolar range; apparent.

For experiment [12], the system named is aptamer # 13_82 (DNA, aptamer) ATACCAGCTTATTCAATTCAGGGCGGTATGAGGCTCGATCAAGGTCGGAGCGAGAATTTTTTCGCGGAGTCGGCTGGATCAGATAGTAAGTGCAATCT
The experiment is described as above. The conditions noted are these: 100 mM Na+, 5 mM K+, 2 mM Mg2+, 1 mM Ca2+; 20 mM Tris-HCl pH 7.6; release from capture oligo iODN2Sp; micromolar range; apparent.

Experiment [13] concerns aptamer # 3_19 (DNA, aptamer) ATACCAGCTTATTCAATTAGCCCGGTATTGAGGTCGATCTCTTATCCTATGGCTTGTCCCCCATGGCTCGGTTATATCCAGATAGTAAGTGCAATCT
The description is as above. The conditions noted are these: 100 mM Na+, 5 mM K+, 2 mM Mg2+, 1 mM Ca2+; 20 mM Tris-HCl pH 7.6; release from capture oligo iODN2Sp; micromolar range; apparent.

Turning to `CCN[C@@H]1C[C@H](N)[C@@H](O[C@H]2OC(CN)=CC[C@H]2N)[C@H](O)[C@H]1O[C@H]1OC[C@](C)(O)[C@H](NC)[C@H]1O`, the “amount of eluted aptamer DNA” value worked out at 1.01 pmol in experiment [1], 1.03 pmol in [2] and 1.03 pmol in experiment [3].

Regarding `CN[C@@H]1[C@@H](O[C@H]2O[C@H](CO)[C@@H](N)[C@H](O)[C@H]2O)O[C@H]2C[C@@H](N)[C@@H](O[C@H]3[C@H](O)[C@@H](O)[C@H](N)C[C@@H]3N)O[C@@H]2[C@@H]1O`, the “amount of eluted aptamer DNA” value is on record as 3.40 pmol in experiment [1]; 3.04 pmol in experiment [2]; 1.68 pmol in [4]; 2.27 pmol in [5]; 3.04 pmol in experiment [3].

With `NC[C@@H]1O[C@H](O[C@H]2[C@@H](O)[C@H](O[C@@H]3[C@@H](O)[C@H](N)C[C@H](N)[C@H]3O[C@H]3O[C@H](CO)[C@@H](O)[C@H](O)[C@H]3N)O[C@@H]2CO)[C@H](N)[C@@H](O)[C@@H]1O`, in experiment [6], the binding result is “no”.

On to `NC[C@H]1O[C@H](O[C@H]2[C@H](O)[C@@H](O[C@H]3O[C@H](CO)[C@@H](O)[C@H](N)[C@H]3O)[C@H](N)C[C@@H]2N)[C@H](N)C[C@@H]1O`, for which the “amount of eluted aptamer DNA” value was determined as 1.13 pmol in experiment [7], 2.78 pmol in [1], 4.03 pmol in experiment [2] and 1.91 pmol in experiment [4]. In experiment [5], the binding entry is given as “no”.

As to `NC[C@H]1O[C@H](O[C@H]2[C@H](O)[C@@H](O[C@H]3O[C@H](CO)[C@@H](O)[C@H](N)[C@H]3O)[C@H](N)C[C@@H]2N)[C@H](N)[C@@H](O)[C@@H]1O`, the “amount of eluted aptamer DNA” value in [7] is given as 3.09 pmol; in experiment [1] it was 7.22 pmol; in experiment [2], 5.21 pmol; in experiment [4] it was 8.04 pmol; in experiment [3], 4.42 pmol. In addition, the binding result in experiment [5] is reported as “no”.

Take `NC[C@H]1O[C@H](O[C@H]2[C@H](O)[C@@H](O[C@H]3O[C@H](CO)[C@@H](O)[C@H](N)[C@H]3O)[C@H](N)C[C@@H]2N)[C@H](O)[C@@H](O)[C@@H]1O`: the “amount of eluted aptamer DNA” value is reported as 6.87 pmol in experiment [7]; 6.85 pmol in experiment [1]; 5.02 pmol in experiment [2]; 10.44 pmol in [4]; 3.02 pmol in experiment [5]; 4.62 pmol in experiment [3]. Also, the dissociation constant in experiment [8] is 5.4 µM; in [10] it was 146 µM; in experiment [11] it was 9.6 µM; in [12], 5.1 µM; in experiment [13] it was 3.9 µM. The binding entry in [9] is listed as “no”.
